Measured values reported in US10081615B2, “Sulfamate derivative compounds for use in treating or alleviating pain” (Bio-Pharm Solutions Co., Ltd., priority 2013, dated 2018).

Assays:
[1] = test system: CFA-induced pain model; experiment: Antiallodynic activity on Complete Freund's Adjuvant (CFA)-induced inflammatory pain model (von Frey); assay type: in vivo, Sprague-Dawley rats; conditions: Rattus norvegicus, ip
Method: Male, Sprague-Dawley rats (200-220 g, Nara Bio, Korea) were habituated for 1 week before surgery and allowed free access to food and water throughout the experimentation. Room temperature and humidity were maintained at 24±2° C. and 50±10%, respectively.
CFA-induced inflammatory pain was induced by the procedure of Nagakura et al. (2003) and Gregory P. et al. (2010) with minor modifications. CFA (sigma, USA) was injected into the left plantar with a 100 ul volume under gaseous anesthesia with isoflurane and NO2 with a 4:4 flow ratio. Sham controls were injected with 100 ul of saline and preparation of the vehicle controls were identical to the group treated with compound, except for administration of vehicles without compound in the vehicle control group.
Tactile sensitivity (mechanical allodynia) was evaluated using von Frey monofilaments before and after treatment, and the animals were included in the study only if the withdrawal threshold value was less than 4 g. One week after surgery, CFA-infused animals (n=4˜6), sham-operated animals (n=12), and vehicle-operated animals (n=17) were tested for tactile sensitivity with von Frey monofilaments, with 3 trials for each animal. All animals were placed in a stainless steel mesh chamber and habituated for 30 min in the test cage. The tactile sensitivity for the ipsilateral hind paw was measured using the up-and-down method (Dixon, 1980) with seven von Frey monofilaments (0.4, 1, 2, 4, 6, 8, and 15 g) in 3 trials. The tactile sensitivity test was followed by Dixon's method (Dixon, 1980). The 50% paw withdrawal threshold for each paw was calculated using the following formula: [Xth] log=[vFr] log+ky where [vFr] is the force of the last von Frey used, k=0.2249 which is the average interval (in log units) between the von Frey monofilaments, and y is a value that depends upon the pattern of the withdrawal responses (Dixon, 1980).
The antiallodynic effect of the compound of Example was evaluated at the doses of 10, 30 and 60 mg/kg (n=4˜6), and were intraperitoneally administered in a volume of 5 ul/g by bodyweight in a vehicle of 30% (v/v) PEG. […]
The relative values compared to the sham (% control) were calculated and are shown in Table 4, which show an antiallodynic effect of the compound of examples in the CFA-induced pain model in rats.

[2] = test system: acetic acid-induced writhes; experiment: Writhing test (acetic acid); assay type: in vivo, ICR mice; conditions: Mus musculus, po, 0.5 h, read-out: Writh test: ED50 mg/kg
Method: To examine the pain relief effect of the sulfamate derivative compounds, a writhing test was referring to Fischer, L. G. et al. (2008).
ICR mice (male, 24-28 g; Orient Bio, Korea) were habituated before test in test room for 1 hour. Animals were fasted for 2 hr before administration of compounds. […] All compounds were dissolved in a vehicle of 30% (v/v) PEG 400 or 20% (v/v) Tween 80. The control group was treated with the vehicle without compounds.
[…] Animals were habituated in the cage for 5 min. 5 min after habituation, the number of writhes (abdominal constriction) was counted for 15 minutes referring to Korzeniewska-Rybicka, I. et al. (1998) and compared with that of the control.

[3] = test system: Post operation-induced pain model; experiment: Antiallodynic activity on post operative pain-induced pain model (von Frey); assay type: in vivo, Sprague-Dawley rats; conditions: Rattus norvegicus, ip, 0.5 h, read-out: Post Operation: ED50 mg/kg
Method: Male Sprague-Dawley rats (Orient Bio, Korea), 300-320 g, total of 201 rats were used (details in Table 7). Rats were habituated at least 3 days before surgery and free access to food and water (room temperature and humidity were maintained at […] and 50±10%, respectively). The process of performing the post-operation model's surgery was adapted from Brennan et al (1996). At first, rats with allodynia (threshold valueless than 8 g) were excluded in Pre-von Frey Test. During the post-operation surgery, rats were anesthetized under gaseous anesthesia with 2% isoflurane. Rats were laid face down on a plate fixed at 37° C. to prevent against hypothermia. The ipsilateral plantar aspect (left side) of the hind paw was prepared in a sterile manner with a 10% povidone-iodine solution. A longitudinal incision (1 cm) (FIG. 2-A) was made with a blade (number 11) through the skin and fascia of the ipsilateral plantar aspect of the foot, starting from 0.5 cm below the proximal edge of the heel and extending toward the toes. Rats' plantar muscles were elevated and incised longitudinally (FIG. 2-B). After hemostasis with gentle pressure, the skin was opposed with 2 mattress sutures (4-0 Dafilon) (FIG. 2-C). The wound site was covered with a 10% povidone-iodine solution gauze and injected with antibiotics (gentamicin, 8 mg/kg, ip). The sutures were removed under halothane anesthesia approximately 30 hours later, at the end of post-operative day 1.
After 2-3 days of recovery, rats with a good response (threshold less than 4 g) in Pre-von Frey Test were selected. According to this response, we made three groups with each group having equal average responses: Group 1, post-operation and drug treated; Group 2, post-operation and vehicle treated; Group 3, no post-operation and vehicle treated. In this study, Group 3 was the sham control (positive) group. The group 2 was used to check for possible failures to generate post-operative pain.
For efficacy measure, the threshold value of group C was assigned 100% efficacy, and the percentage of the threshold values of group A compared to group C (for each different dose level) were calculated as the efficacies. Base on these efficacy values, ED50 was calculated using log fitting. If there was no clear ED50, then we marked the percent efficacy at the highest tested dose or larger than highest tested dose.
For pain threshold test, all animals were placed in a stainless steel meshed chamber and habituated for 30 min in the test box. The tactile sensitivity of the ipsilateral hind paw was measured using the up-and-down method (Dixon, 1980) with seven von Frey monofilaments (0.4, 1, 2, 4, 6, 8, and 15 g) using 3 trials. The 50% paw withdrawal threshold for each paw was calculated using the following formula: [Xth] log=[vFr] log+ky, where [vFr] is the force of the last von Frey filament used, k=0.2249 which is the average interval (in log units) between the von Frey monofilaments, y which is a value that depends upon the pattern of withdrawal responses, and Xth which is the threshold value (Dixon, 1980).
Drugs were dissolved 30% PEG400 for example 60, 0.9% saline for Pregabalin, 20% Tween80 for Tylenol, 0.9% saline for Topiramate. These vehicles were selected depending on the compound's solubility. Intraperitoneal injection (5 μl/g) was done for all drugs.
The relative values compared to the sham (% control) were calculated and shown in Table 8, which show an antiallodynic effect of the compound of examples on Post operation-induced pain model in rats.

[4] = test system: Vincristine-induced pain model; experiment: Antiallodynic activity in the vincristine-induced pain model (von Frey); assay type: in vivo, Sprague-Dawley rats; conditions: rat, intraperitoneal
Method: Male, Sprague-Dawley rats (300-320 g, Nara Bio, Korea) were habituated for 1 week before surgery and allowed free access to food and water throughout the experimentation. Room temperature and humidity were maintained at 24±2° C. and 50±10%, respectively.
The vincristine-induced pain model was established by the procedure of Natsuko et al. (2001) with minor modifications. Vincristine was intravenously infused continuously for 14 days using a mini-osmotic pump as follows: Vincristine sulfate solution (Hospira, Australia) was diluted with 0.9% saline to a final dose of 30 ug/kg. The pumps (Alzet Model 2002, USA) were filled with the vincristine solution and primed by incubation at 37° C. for 4 h before the infusion. Briefly, animals were put under gaseous anesthesia with isoflurane and NO with a 4:4 flow ratio. A catheter made from PE-60 tubing was inserted into an external jugular vein in the rat. Sham controls were prepared in the same manner, with the external jugular vein exposed, but not cut down. Preparation of the vehicle controls were identical to the group treated with compound, except for administration of vehicles without compound in the vehicle control group.
Tactile sensitivity (mechanical allodynia) was evaluated using von Frey monofilaments before and after treatment, and the animals were included in the study only if the withdrawal threshold value was less than 4 g. One week after surgery, vincristine-infused animals (n=6), sham-operated animals (n=12) and vehicle-operated (n=18) animals were tested for tactile sensitivity with von Frey monofilaments with 3 trials in each animal. All animals were placed in a stainless steel mesh chamber and habituated for 30 min in the test cage. The tactile sensitivity for the ipsilateral hind paw was measured using the up-and-down method (Dixon, 1980) with seven von Frey monofilaments (0.4, 1, 2, 4, 6, 8, and 15 g) in 3 trials. The tactile sensitivity test was followed by Dixon's method. The 50% paw withdrawal threshold for each paw was calculated using the following formula: [Xth] log=[vFr] log+ky where [vFr] is the force of the last von Frey used, k=0.2249 which is the average interval (in log units) between the von Frey monofilaments, and y is a value that depends upon the pattern of withdrawal responses (Dixon, 1980).
[…] The test was performed at the peak time of efficacy (0.5 hr) after compound administration.
The relative values compared to the sham (% control) were calculated and are shown in Table 11, which show an antiallodynic effect of the compound of examples in the vincristine-induced pain model in rats.

[5] = test system: SNL model; experiment: Antiallodynic activity in the Chung model (SNL, Spinal Nerve Ligation; von Frey); assay type: in vivo, Sprague-Dawley rats; conditions: Rattus norvegicus, po, 0.5 h, read-out: SNL model: effect (%) compared to control, rat, oral, 3.5 mg/kg administered, 0.5 h
Method: Male Sprague-Dawley rats (200-220 g, Orient Bio, Korea) were habituated for 1 week before the experiment and allowed free access to food and water throughout the experimentation. Room temperature and humidity were maintained at 24±2° C. and 50±10%, respectively. The neuropathic surgery (SNL, Spinal Nerve Ligation) model was done as described in Kim and Chung (1992). Briefly, an animal was put under gaseous anesthesia with isoflurane and NO2 with a 4:4 flow ratio. The left lumbar spinal nerves L5 and L6 were isolated and tightly ligated with 4-0 silk thread. The wound was treated with a gentamicin antibiotic solution (4 mg/kg, 4 ul/g by bodyweight), and the wound muscle was closed with Catgut® chrome 4/0 thread and the skin was closed with Dafilon 4/0 thread. Sham controls were prepared in the same manner with the spinal nerves were exposed, but no ligated L5 and L6 nerves. Preparation of the vehicle controls were identical to the group treated with compound, except for administration of vehicles without compound in the vehicle control group.
Tactile sensitivity (mechanical allodynia) was evaluated using von Frey monofilaments before and after treatment and animals the animals were included in the study only if the withdrawal threshold value was less than 4 g. One week after surgery, SNL-operated animals (n=4˜6), sham-operated animals (n=4˜10) and vehicle-operated animals (n=4˜13) were tested for tactile sensitivity with von Frey monofilaments with 3 trials in each animal. All animals were placed in a stainless steel mesh chamber and habituated for 30 min in the test cage. The tactile sensitivity for ipsilateral hind paw was measured using the up-and-down method (Dixon, 1980) with seven von Frey monofilaments (0.4, 1, 2, 4, 6, 8, and 15 g) in 3 trials. The tactile sensitivity test was followed by Dixon's method (Dixon, 1980). The 50% paw withdrawal threshold for each paw was calculated using the following formula: [Xth] log=[vFr] log+ky where [vFr] is the force of the last von Frey used, k=0.2249 which is the average interval (in log units) between the von Frey monofilaments, and y is a value that depends upon the pattern of withdrawal responses (Dixon, 1980).
All animals were fasted for 18 h before the administration of the compounds. The antiallodynic effect of the compounds were evaluated at the various doses (n=5˜6), orally administered in a volume of 5 ul/g by bodyweight in a vehicle of 30% (v/v) PEG 400 (Example 7) or 20% (v/v) Tween 80 (Examples 5 and 6) or saline. […]
The relative values compared to the sham group (% control) were calculated and are shown in Table 5, which show an antiallodynic effect of the test compounds in the SNL model in rats.

| SMILES | ED50 ([1]; 0.5 h, read-out: CFA model: ED50 mg/kg) | ED50 [2] | ED50 [3] | ED50 ([4]; ip, 0.5 h) | response vs control in vivo at 25 mg/kg ([1]; read-out: CFA model: effect (%) compared to control) | response vs control in vivo at 3.5 mg/kg [5] | Vincristine model: effect (%) compared to control ([4]; 2.4 mg/kg administered, time not given) |
| --- | --- | --- | --- | --- | --- | --- | --- |
| CC1(C)Oc2ccccc2[C@@H](COS([NH-])(=O)=O)O1.[Na+] [Example 59, Sodium (S)-(((2,2-dimethyl-4H-benzo[d][1,3]dioxin-4-yl)methoxy)sulfonyl)amide Trihydrate] | 20.2 mg/kg | 81.4 mg/kg | 10.9 mg/kg | 2.6 mg/kg | – | – | – |
| CC1(C)Oc2ccccc2[C@@H](COS([NH-])(=O)=O)O1.[K+] [Example 71, Potassium (S)-(((2,2-dimethyl-4H-benzo[d][1,3]dioxin-4-yl)methoxy)sulfonyl)amide] | – | – | – | – | 24.7% | 15.9% | (96.2%) |
